Numbered stars: 1 amine (or outer) side, 2 acyl side, 3 side chain; on linkers, the order of the positions; unused ones are H or OH. Bridge positions count the residues as written; N and C are the ends. Square brackets hold non-standard residues; d marks the D form. Peptide text beside a SMILES is read from it. * marks the point of attachment. Tridecanoyl(12-Me) = CC(C)CCCCCCCCCCC(=O)*; X1 = NC(=O)CC(O)C(N[*:1])C(=O)[*:2]; NMeF = CN[CH](Cc1ccccc1)C(=O)O; NMeN = CN[CH](CC(N)=O)C(=O)O
Key:
[1] = system: Puccinia recondita f. sp. tritici; assay: Leaf disc/segment test on wheat, Puccinia recondita f. sp. tritici (Brown Rust), 7-9 days after application; format: in vivo
Protocol: Leaf disks or leaf segments of various plant species were cut from plants grown in the greenhouse. The cut leaf disks, or segments were placed in multiwell plates (24-well format) onto water agar. The leaf disks were sprayed with a test solution before inoculation with the fungal spores. Compounds to be tested were prepared as DMSO solutions (max. 10 mg/ml) which were diluted to the appropriate concentration with water plus 0.025% Tween® 20 just before spraying. The inoculated leaf disks or segments were incubated under defined conditions (temperature, relative humidity, light, etc.) according to the respective test system. A single evaluation of disease level was carried out by visual evaluation 3-9 days days after inoculation, depending on the pathosystem as indicated below. Percent disease control relative to the untreated check leaf disks or segments was then calculated.
Puccinia recondita f. Sp. Tritici/Wheat/Leaf Disc (Brown Rust)
Wheat leaf segments cv. Kanzler were placed on agar in multiwell plates (24-well format) and sprayed with the formulated test compound diluted in water. The leaf disks were inoculated with a spore suspension of the fungus 1 day after application. The inoculated leaf segments were incubated at 19 °C and 75% rh under a light regime of 12 h light/12 h darkness in a climate cabinet and the activity of a compound was assessed as percent disease control compared to untreated when an appropriate level of disease damage appears in untreated check leaf segments (7-9 days after application).

[2] = system: Puccinia recondita f. sp. tritici; assay: Leaf painting assay in wheat seedling, Puccinia recondita; format: in vivo, Puccinia recondita f. sp. tritici on wheat (variety Arina); settings: for % reduction of fungal growth: middle segment
Protocol: Wheat seedlings of the variety Riband (for Zymoseptoria tritici trials) or variety Arina (for Puccinia recondite trials) were grown in a glasshouse until 14 d after seeding. At this time, such seedlings usually have a first leaf fully emerged (designated L1), a second leaf fully emerged (L2) and a third leaf (L3) that was partially emerged and in the process of development. Using a permanent pen, two dots were applied on the second leaf such as to generate three segments of roughly equal size: Segment A (at the base), segment B (middle part) and segment C (upper part of the leaf). A stock solution of the test compound was produced in DMSO at a concentration of 10′000 ppm. […] The diluted compound was applied to the middle segment of L2 using a conventional cotton stick; the cotton stick was soaked in the diluted compound and rubbed several times on the adaxial leaf surface between the two marks. 1 day later, the complete plant was inoculated with a fungal spore suspension using a paint brush and application of the spore suspension until before run-off.
For infection with Puccinia recondita: The test plants were inoculated by spraying them with a spore suspension 1 day after application (spore suspension at 80′000 spores per ml in water supplemented with Tween® 20 at 0.1%). After an incubation period of 1 day at 20 °C and 95% rh, the inoculated test plants were kept at 20 °C and 60% rh in a greenhouse.
The three segments of the leaf were evaluated individually.

Zymoseptoria tritici = assay: Liquid culture 96-well mixture assay with malonomicin, Zymoseptoria tritici, 72 hrs; format: cell-based; settings: read-out: control of fungal growth (% reduction)
Protocol: (§1) A stock solution for compound of Formula I(a) was produced in DMSO (max. 10 mg/ml). Malonomicin was produced according to Law et al, 2018 (Nature Catalys is |VOL 1|DECEMBER 2018|977-984). A stock solution of malonomicin was produced in water plus 0.025% Tween® 20.
(§2) Assays to test efficacy of mixtures of the lipopeptide compound of Formula I(a) in combination with malonomicin on the control of fungal pathogens in a liquid culture assay were designed for a 96well plate as outlined in table 1:
(§3) The 96 well plate design allows to compare disease control of the mixture with disease control of the respective single compound at the same rate.
(§4) A master plate with 10× concentrated solution of the compound stock solutions diluted in water plus 0.025% Tween® 20 was prepared. The concentration of DMSO (from the stock of compound of Formula (a)) and Tween® 20 was kept constant in all cells of the master plate. 10 μl was transferred from the master plate to a 96well test plate. The nutrient broth containing the fungal spores/mycelia fragments was then added to the test plate to give an end concentration of 1× for the tested compounds (as outlined in Table 8). The test plates were incubated in the dark at 24 °C and 96% rh. The inhibition of fungal growth was determined photometrically after ca 3 days, and percent fungal growth reduction relative to the untreated check was calculated.
Zymoseptoria tritici (EPPO Code: SEPTTR)
Conidia of the fungus from cryogenic storage were directly mixed into nutrient broth (PDB: potato dextrose broth).

Pyricularia oryzae = format: cell-based; settings: plate column (1): compound of Formula I(a) alone, dilution series lines A (highest) to G; concentrations in Table 8
Sclerotinia sclerotiorum = assay: Liquid culture 96-well mixture assay with malonomicin, Sclerotinia sclerotiorum, 72 hrs; format: cell-based; settings: plate column (1): compound of Formula I(a) alone, dilution series lines A (highest) to G; concentrations in Table 8
Protocol: as §1, §2, §3, §4
Sclerotinia sclerotiorum (EPPO Code: SCLESC)
Mycelial fragments of the fungus prepared from a fresh liquid culture were directly mixed into nutrient broth (PDB: potato dextrose broth).

[3] = system: several phytopathogenic fungi; assay: Liquid culture assays, summary over the fungi tested; format: cell-based; settings: up to; Tables 2 and 3
Protocol: Mycelia fragments or conidia suspensions of a fungus, prepared either freshly from liquid cultures of the fungus or from cryogenic storage, were directly mixed into nutrient broth.
A stock solution for compound of Formula I(a) and Formula I(b) was produced in DMSO (max. 10 mg/ml), which was diluted with water plus 0.025% Tween®20 to produce a 10× concentrated sample and 10 μl of this solution was pipetted into a microtiter plate (96-well format). The nutrient broth containing the fungal spores/mycelia fragments was then added to give an end concentration of the tested compound. The test plates were incubated in the dark at 24 °C and 96% rh. The inhibition of fungal growth was determined photometrically after 2-7 days, depending on the pathosystem, and percent antifungal activity relative to the untreated check was calculated.
The effect of the test compound (Formula I(a), I(b) and Lipopeptin A) was tested against the following fungi under the conditions as outlined above and specifically herein below: […]

CC(C)CCCCCCCCCCC(=O)NC1C(=O)NC(CC(=O)O)C(=O)NC(C(O)CC(N)=O)C(=O)NC(CO)C(=O)N(C)C(CC(N)=O)C(=O)N(C)C(Cc2ccccc2)C(=O)NC(CCC(N)=O)C(=O)NC(CCC(=O)O)C(=O)OC1C (stereo not shown) [Formula I(a)] ({Tridecanoyl(12-Me)}-TD[X1]S[NMeN][NMeF]QE; ester 1-C; configuration not given here)
% reduction of fungal growth ([1]; Table 4, 0.82 ppm): 0%
% reduction of fungal growth ([1]; Table 4, 2.5 ppm): 0%
% reduction of fungal growth ([1]; Table 4, 7.4 ppm): 0%
% reduction of fungal growth ([1]; Table 4, 22 ppm): 0%
% reduction of fungal growth ([1]; Table 4, 67 ppm): 90%
% reduction of fungal growth ([1]; Table 4, 200 ppm): 100%
% reduction of fungal growth ([1]; Table 5, 0.82 ppm): 0%
% reduction of fungal growth ([1]; Table 5, 2.5 ppm): 0%
% reduction of fungal growth ([1]; Table 5, 7.4 ppm): 0%
% reduction of fungal growth ([1]; Table 5, 22 ppm): 35%
% reduction of fungal growth ([1]; Table 5, 67 ppm): 90%
% reduction of fungal growth ([1]; Table 5, 200 ppm): 95%
% reduction of fungal growth ([2]; 20 ppm): 70%
% reduction of fungal growth ([2]; 200 ppm): 61%
control on the treated area (middle segment) ([2]; up to, Table 6, Puccinia): up to 70%
inhibition of growth at 1.56 µg/mL (Zymoseptoria tritici; I(a) 1.56 ppm): 0%
inhibition of growth at 3.125 µg/mL (Zymoseptoria tritici; I(a) 3.125 ppm): 20%
inhibition of growth at 6.25 µg/mL (Zymoseptoria tritici; I(a) 6.25 ppm): 50%
inhibition of growth at 12.5 µg/mL (Zymoseptoria tritici; I(a) 12.5 ppm): 70%
inhibition of growth at 25 µg/mL (Zymoseptoria tritici; I(a) 25 ppm): 70%
inhibition of growth at 50 µg/mL (Zymoseptoria tritici; I(a) 50 ppm): 90%
inhibition of growth at 100 µg/mL (Zymoseptoria tritici; I(a) 100 ppm): 90%
control of fungal growth (% reduction of growth in the test well as compared to untreated check) (Pyricularia oryzae): 20%
control of fungal growth (% reduction of growth in the test well as compared to untreated check) (Sclerotinia sclerotiorum): 0%
control of phytopathogenic fungi [3]: up to 100%

— US20260347403A1, “FUNGICIDAL COMPOUND” (priority 2022, published 2026)
